Experimental data published in US4009206A, “N-(substituted phenyl and benzyl)abietamides” (priority 1974, dated 1977).

Test system: cholesterol in blood
Experiment: Reduction of blood cholesterol in rats fed a 1% cholesterol / 0.25% sodium cholate diet
Assay type: in vivo, male rats
Conditions: 3 days, control (cholesterol-administered) group = 0, normal group = 100, * 5%, ** 1% significance
Protocol: A completely synthetic diet containing 1% of cholesterol, 0.25% of sodium cholate and 0.0003%, 0.003%, and 0.03% of the test compound is given to a group of 6 male rats having a body weight of about 50 g consecutively for 3 days, and the rats are fasted overnight. Then, the rats are decapitated and blood is collected to determine the cholesterol concentration in blood. The concentration of cholesterol in blood is measured with Technicon Autoanalyzer(Technicon Laboratory: Method File N-24a) Obtained results are shown in Table 1.
Each value shown in the Table is a relative value determined based on the supposition that the value of the control group (the cholesterol-administered group) is 0 and the value of the normal group (the non-cholesterol-administered group) is 100.

Compound: Cc1cccc(C)c1NC(=O)C1(C)CCCC2(C)C3=C(CCC12)CC(C(C)C)CC3 (centres unmarked) [N-(2,6-dimethylphenyl)-Δ^8-dihydroabietamide]
- % Inhibition (cholesterol in blood) (Dose in Diet 0.0003%): 33%
- % Inhibition (cholesterol in blood) (Dose in Diet 0.003%): 76%
- % Inhibition (cholesterol in blood) (Dose in Diet 0.03%): 102%

Compound: CC(C)C1CCC2=C(CCC3C(C)(C(=O)NCc4ccc(Cl)cc4)CCCC23C)C1 (centres unmarked) [N-(4-chlorobenzyl)-Δ^8-dihydroabietamide]
- % Inhibition (cholesterol in blood) (Dose in Diet 0.003%): 9%
- % Inhibition (cholesterol in blood) (Dose in Diet 0.03%): 30%

Compound: N-(m-bromophenyl)-dihydroabietamide
- % Inhibition (cholesterol in blood) (Dose in Diet 0.0003%): 7%
- % Inhibition (cholesterol in blood) (Dose in Diet 0.003%): 23%
- % Inhibition (cholesterol in blood) (Dose in Diet 0.03%): 60%
